Data as given in ChEMBL document CHEMBL3868595, “Plazomicin is effective in a non-human primate pneumonic plague model” (Bioorg Med Chem, 2016).

Tests used:
Yersinia pestis [1] = experiment: Antibacterial activity against Yersinia pestis Colorado 92 infected in African green monkey B6873 model assessed as bacterial burden in heart at 12.5 mg/kg, iv administered within 6 hrs post onset of sustained fever as 30 mins infusion for 5 days (reference value: 2.6 10^7CFU/g); assay type: functional, organism-based; conditions: CO92
African green monkey [2] = experiment: Toxicity in African green monkey 8067 model infected with Yersinia pestis Colorado 92 assessed as serum lactate dehydrogenase level at 25 mg/kg, iv administered within 6 hrs post onset of sustained fever as 30 mins infusion for 10 days (reference value: 287 IU/L); assay type: organism-based; conditions: chlorocebus sabaeus, in vivo
Yersinia pestis [3] = experiment: Antibacterial activity against Yersinia pestis Colorado 92 infected in African green monkey B6436 model assessed as bacterial burden in lung at 25 mg/kg, iv administered within 6 hrs post onset of sustained fever as 30 mins infusion for 5 days (reference value: 7.7 10^8CFU/g); assay type: functional, CO92
African green monkey [4] = experiment: Toxicity in African green monkey B6428 model infected with Yersinia pestis Colorado 92 assessed as blood urea nitrogen level at 25 mg/kg, iv administered within 6 hrs post onset of sustained fever as 30 mins infusion for 10 days (reference value: 16 mg/dl); assay type: organism-based; conditions: chlorocebus sabaeus, in vivo
Yersinia pestis [5] = experiment: Antibacterial activity against Yersinia pestis Colorado 92 infected in African green monkey B6783 model assessed as bacterial burden in kidney at 12.5 mg/kg, iv administered within 6 hrs post onset of sustained fever as 30 mins infusion for 5 days (reference value: 7.1 10^7CFU/g); assay type: functional, CO92
African green monkey [6] = experiment: Toxicity in African green monkey 7972 model infected with Yersinia pestis Colorado 92 assessed as serum lactate dehydrogenase level at 25 mg/kg, iv administered within 6 hrs post onset of sustained fever as 30 mins infusion for 10 days (reference value: 381 IU/L); assay type: organism-based; conditions: chlorocebus sabaeus, in vivo
African green monkey [7] = experiment: Toxicity in African green monkey B6127 model infected with Yersinia pestis Colorado 92 assessed as stomach ulcer at 25 mg/kg, iv administered within 6 hrs post onset of sustained fever as 30 mins infusion for 10 days measured by hematoxylin staining based assay; assay type: organism-based; conditions: chlorocebus sabaeus, in vivo
Yersinia pestis [8] = experiment: Antibacterial activity against Yersinia pestis Colorado 92 infected in African green monkey 8047 model assessed as bacterial burden in heart at 6.25 mg/kg, iv administered within 6 hrs post onset of sustained fever as 30 mins infusion for 10 days (reference value: 2.6 10^7CFU/g); assay type: functional, CO92
Yersinia pestis [9] = experiment: Antibacterial activity against Yersinia pestis Colorado 92 infected in African green monkey B6960 model assessed as bacterial burden in tracheobronchial lymph nodes at 6.25 mg/kg, iv administered within 6 hrs post onset of sustained fever as 30 mins infusion for 5 days (reference value: 7.7 10^9CFU/g); assay type: functional, CO92, Lymph node
Yersinia pestis [10] = experiment: Antibacterial activity against Yersinia pestis Colorado 92 infected in African green monkey B6127 model assessed as bacterial burden in tracheobronchial lymph nodes at 25 mg/kg, iv administered within 6 hrs post onset of sustained fever as 30 mins infusion for 10 days (reference value: 7.7 10^9CFU/g); assay type: functional, organism-based; conditions: CO92, Lymph node
African green monkey [11] = experiment: Toxicity in African green monkey 7929 model infected with Yersinia pestis Colorado 92 assessed as serum creatinine level at 25 mg/kg, iv administered within 6 hrs post onset of sustained fever as 30 mins infusion for 10 days (reference value: 1 mg/dl); assay type: organism-based; conditions: chlorocebus sabaeus, in vivo
[12] = Cmax in African green monkey blood at 25 mg/kg administered as iv infusion twice daily for 7 consecutive days measured on day 1 by LC-MS/MS analysis; assay type: ADME, organism-based; set-up: dose 25 mg/kg, route intravenous; conditions: chlorocebus aethiops
African green monkey [13] = experiment: Toxicity in African green monkey 7929 model infected with Yersinia pestis Colorado 92 assessed as serum gamma glutamyl-transferase level at 25 mg/kg, iv administered within 6 hrs post onset of sustained fever as 30 mins infusion for 10 days (reference value: 44 IU/L); assay type: organism-based; conditions: chlorocebus sabaeus, in vivo
African green monkey [14] = experiment: Toxicity in African green monkey 7643 model infected with Yersinia pestis Colorado 92 assessed as blood urea nitrogen level at 25 mg/kg, iv administered within 6 hrs post onset of sustained fever as 30 mins infusion for 10 days (reference value: 16 mg/dl); assay type: organism-based; conditions: chlorocebus sabaeus, in vivo
Yersinia pestis [15] = experiment: Antibacterial activity against Yersinia pestis Colorado 92 infected in African green monkey C2149 model assessed as bacterial burden in heart at 6.25 mg/kg, iv administered within 6 hrs post onset of sustained fever as 30 mins infusion for 5 days (reference value: 2.6 10^7CFU/g); assay type: functional, CO92
Yersinia pestis [16] = experiment: Antibacterial activity against Yersinia pestis Colorado 92 infected in African green monkey B6106 model assessed as bacterial burden in spleen at 25 mg/kg, iv administered within 6 hrs post onset of sustained fever as 30 mins infusion for 5 days (reference value: 1.6 10^9CFU/g); assay type: functional, CO92
African green monkey [17] = experiment: Toxicity in African green monkey 7929 model infected with Yersinia pestis Colorado 92 assessed as serum alanine aminotransferase level at 25 mg/kg, iv administered within 6 hrs post onset of sustained fever as 30 mins infusion for 10 days (reference value: 63 IU/L); assay type: organism-based; conditions: chlorocebus sabaeus, in vivo
Yersinia pestis [18] = experiment: Antibacterial activity against Yersinia pestis Colorado 92 infected in African green monkey C2083 model assessed as bacterial burden in brain at 12.5 mg/kg, iv administered within 6 hrs post onset of sustained fever as 30 mins infusion for 5 days (reference value: 1.9 10^6CFU/g); assay type: functional, CO92
Yersinia pestis [19] = experiment: Antibacterial activity against Yersinia pestis Colorado 92 infected in African green monkey B6861 model assessed as bacterial burden in brain at 6.25 mg/kg, iv administered within 6 hrs post onset of sustained fever as 30 mins infusion for 5 days (reference value: 1.9 10^6CFU/g); assay type: functional, CO92
Yersinia pestis [20] = experiment: Antibacterial activity against Yersinia pestis Colorado 92 infected in African green monkey B6861 model assessed as bacterial burden in kidney at 6.25 mg/kg, iv administered within 6 hrs post onset of sustained fever as 30 mins infusion for 5 days (reference value: 7.1 10^7CFU/g); assay type: functional, CO92
Yersinia pestis [21] = experiment: Antibacterial activity against Yersinia pestis Colorado 92 infected in African green monkey B6127 model assessed as bacterial burden in brain at 25 mg/kg, iv administered within 6 hrs post onset of sustained fever as 30 mins infusion for 10 days (reference value: 1.9 10^6CFU/g); assay type: functional, CO92
Yersinia pestis [22] = experiment: Antibacterial activity against Yersinia pestis Colorado 92 infected in African green monkey 8047 model assessed as bacterial burden in kidney at 6.25 mg/kg, iv administered within 6 hrs post onset of sustained fever as 30 mins infusion for 10 days (reference value: 7.1 10^7CFU/g); assay type: functional, CO92
[23] = Elimination half life in African green monkey blood at 25 mg/kg administered as iv infusion twice daily for 7 consecutive days measured on day 7 by LC-MS/MS analysis; assay type: ADME, organism-based; conditions: chlorocebus aethiops, read-out: beta t1/2 (converted)
Yersinia pestis [24] = experiment: Antibacterial activity against Yersinia pestis Colorado 92 infected in African green monkey B6873 model assessed as bacterial burden in spleen at 12.5 mg/kg, iv administered within 6 hrs post onset of sustained fever as 30 mins infusion for 5 days (reference value: 1.6 10^9CFU/g); assay type: functional, organism-based; conditions: CO92
African green monkey [25] = experiment: Toxicity in African green monkey 8067 model infected with Yersinia pestis Colorado 92 assessed as serum creatinine level at 25 mg/kg, iv administered within 6 hrs post onset of sustained fever as 30 mins infusion for 10 days (reference value: 0.8 mg/dl); assay type: organism-based; conditions: chlorocebus sabaeus, in vivo

CN[C@@H]1[C@@H](O)[C@@H](O[C@@H]2[C@@H](O)[C@H](O[C@H]3OC(CNCCO)=CC[C@H]3N)[C@@H](N)C[C@H]2NC(=O)[C@@H](O)CCN)OC[C@]1(C)O [PLAZOMICIN]
Activity (Yersinia pestis [1]): Below limit of detection | Activity (African green monkey [2]): 478 IU/L | Activity (Yersinia pestis [3]): 44 CFU/g | Activity (African green monkey [4]): 26 mg/dL | Activity (Yersinia pestis [5]): 76 CFU/g | Activity (African green monkey [6]): 398 IU/L | Activity (African green monkey [7]): Toxic | Activity (Yersinia pestis [8]): 2 ×10⁷ CFU/g | Activity (Yersinia pestis [9]): 1.6 ×10⁷ CFU/g | Activity (Yersinia pestis [10]): Below limit of detection | Activity (African green monkey [11]): 0.9 mg/dL | Cmax [12]: 96 µg/mL | Activity (African green monkey [13]): 16 IU/L | Activity (African green monkey [14]): 19 mg/dL | Activity (Yersinia pestis [15]): 9.7 ×10⁶ CFU/g | Activity (Yersinia pestis [16]): 31 CFU/g | Activity (African green monkey [17]): 41 IU/L | Activity (Yersinia pestis [18]): 2.2 ×10⁶ CFU/g | Activity (Yersinia pestis [19]): 12 CFU/g | Activity (Yersinia pestis [20]): 11 CFU/g | Activity (Yersinia pestis [21]): 39 CFU/g | Activity (Yersinia pestis [22]): 32 CFU/g | half-life [23]: 1.8 h | Activity (Yersinia pestis [24]): Below limit of detection | Activity (African green monkey [25]): 0.8 mg/dL
